Laboratory results from patent US6664419B1, “Method and device for purifying substances by means of crystallization” (Stockhausen GmbH & Co. KG, priority 1999, dated 2003).
Like-named read-outs stand apart in the source and are kept apart here.

Experiment: Solubility limit of impurity in molten acrylic acid
Type: physicochemical
Text: In addition to other impurities, acrylic acid pre-purified by distillation may contain maleic acid, its anhydride, and phenothiazine which precipitate from the molten material at concentrations of more than 4% (maleic acid) and 1.5% (phenothiazine), respectively. The respective amounts of solid precipitating during a crystallization process as a result of surpassing the solubility limit can be inferred from the following Examples (Table 1 and 2).
The solubility of maleic acid in acrylic acid is about 4%. The residue (13.2 kg) contains 20.4% or 2.7 kg of maleic acid, 2.4 kg of which precipitates as a solid as a result of surpassing the solubility limit.

| solubility in acrylic acid | Structure (SMILES) | solubility in acrylic acid (in acrylic acid melt / mother liquor, precipitates above this concentration) |
| --- | --- | --- |
| about 4% | O=C(O)/C=C\C(=O)O [maleic acid] | – |
| – | c1ccc2c(c1)Nc1ccccc1S2 [PTZ, phenothiazine] | about 1.5% |
